Columns and labels:
[1] = system: winter wheat, TRZAW; experiment: Post-emergence greenhouse pot test, visual scoring of crop damage on winter wheat; format: in vivo
Description: Post-emergence application was done when the plants had reached growth stage BBCH11 (BBCH is the international coding system for the growth stage of crops and weeds).
The safener (mefenpyr-diethyl) was formulated as wettable powder (WP).
The compounds were sprayed onto the green parts of the plants as an aqueous suspension at an equivalent water application rate of 300 l/ha.
(§1) The combination of herbicide and safener was applied as a tank mix.
(§2) After application, the test plants were kept in the greenhouse under good growth conditions.
(§3) Values in the table below are mean values from at least 3 replicates.
(§4) For the safener seed treatment, sufficient seeds were weighed into screw top glass bottles approximately twice the volume of the seeds.
(§5) The safener (mefenpyr-diethyl, formulated as suspension concentrate (SC)) was weighed out so that the required rates (g a.i./kg seed) would be obtained, dissolved in water (1 ml water per 10 g of seeds), and added to the seeds to produce a slurry.
(§6) The bottles were capped and then placed in an overhead shaker (set at medium speed for up to 1 hour) so that the seeds were evenly coated with the slurry. The bottles were uncapped and the seeds were sown as described above.
(§7) For the seed treatment process, the blind formulation (the SC formulation without the safener mefenpyr-diethyl) was used as seed treatment as described above.
Post-emergence application of the herbicide was done when the plants had reached growth stage BBCH11.
Post-emergence application was done when the plants had reached growth stage BBCH11.

[2] = system: winter wheat, TRZAW; experiment: Pre-emergence greenhouse pot test, visual scoring of crop damage on winter wheat; format: in vivo
Procedure: as §4, §5, §6, §7
The compounds were sprayed to the soil surface as an aqueous suspension at an equivalent water application rate of 300 l/ha.
as §1, §2, §3

Molecule	% crop damage ([1]; safener 200 g/ha in tank mix alone, post-emergence (BBCH11), no herbicide, 14 days after application) [%]	% crop damage ([1]; safener seed treatment 0.5 g/kg alone, no herbicide, post-emergence test series) [%]	% crop damage ([2]; safener 200 g/ha in tank mix alone, pre-emergence, no herbicide, 14 days after application) [%]	% crop damage ([2]; safener seed treatment 0.5 g/kg alone, no herbicide, pre-emergence test series) [%]	% crop damage ([1]; herbicide 200 g/ha post-emergence (BBCH11), no safener, 14 days after application, mean of at least 3 replicates) [%]	% crop damage ([2]; herbicide 200 g/ha pre-emergence, no safener, 14 days after application, mean of at least 3 replicates) [%]
CCOC(=O)C1=NN(c2ccc(Cl)cc2Cl)C(C)(C(=O)OCC)C1 (stereo not drawn) [Safener in tank mix, ethyl 1-(2,4-dichlorophenyl)-5-(ethoxycarbonyl)-5-methyl-2-pyrazoline-3-carboxylate]	5	0	5	5		
Diflufenican [Herbicide post-em.]					20	25
